Assay results as given in article PMC9674830, “A glutamine-based single α-helix scaffold to target globular proteins” (Nature Communications, 2022).

Columns and labels:
Assay type in all cases: physicochemical
[1] = Oligomeric state by SEC-MALS and native MS; settings: SEC-MALS (and native MS where stated)
Excerpt: To analyze the origin of this behavior and exploit it for peptide design we studied four peptides of identical amino acid composition but with two potential Glni+4 → Leui interactions (pink arrows in Fig. 1a) at different relative positions. The first such interaction is common to all peptides and the second one is shifted 1 (peptide P1-5), 2 (P2-6), 3 (P3-7), or 5 (P5-9) positions towards the C-terminus. After confirming that they were monomeric under our experimental conditions by size exclusion chromatography coupled to multiple angle light scattering (SEC-MALS) (Supplementary Fig. 1d), we used solution-state nuclear magnetic resonance (NMR) spectroscopy to probe their structural properties by exploiting the quantitative dependence of ^13Cα and ^1Hα NMR chemical shifts on residue-specific helical propensity, where larger ^13Cα and lower ^1Hα shifts indicate higher helicity.
We then used CD spectroscopy to study the secondary structure of peptides containing two and three pairs of concatenated Glni+4 → Leui interactions, (P3-7)2 and (P3-7)3, and obtained that they are highly helical and monomeric (Θ222 nm/Θ208 nm < 1) (Fig. 1c, d). […]
These samples were treated with 400 μL of methanol to precipitate the serum proteins and centrifuged for 30 min at 277 K. The supernatant was filtered and analyzed by HPLC to calculate the percentage of intact peptide in the sample. […]

[2] = CD spectroscopy (helicity); settings: 30 μM peptide, ratio taken as sign of monomeric helix
Protocol: Peptide samples for CD spectroscopy were diluted to a final concentration of 30 μM in a volume of 400 μL in either 20 mM phosphoric acid (pH 2.8) or sodium phosphate (pH 7.4) buffer. Spectra were obtained at 278 K (unless stated otherwise) in a Jasco 815 UV spectro-photopolarimeter with a 1 mm optical path cuvette using a data interval of 0.2 nm in the 190−260 nm range with a scanning speed of 50 nm min^−1 and 20 accumulations. A blank spectrum acquired on the pertaining buffer under the same experimental conditions was subtracted from the sample spectrum. Thermal denaturation experiments were performed by acquiring a single accumulation spectrum with the same parameters at 10 K intervals, with a temperature ramp speed of 10 K min^−1 and an equilibration time of 1 min.

[3] = NMR residue-specific helical propensity (pHel, CheSPI from backbone chemical shifts); settings: 278 K, pH 7.4, 100 μM; 9 contiguous residues for (P3-7)2, 16 for (P3-7)3
Protocol: Peptide samples for NMR spectroscopy were diluted to a final concentration of 100 μM in a volume of 400 μL in either 20 mM phosphoric acid (pH 2.8) or sodium phosphate (pH 7.4) buffer with added 10% v/v D2O and 10 μM DSS for internal chemical shift referencing, then filled into Shigemi tubes (Shigemi Co. Ltd, Tokyo, Japan). All NMR experiments were recorded at 278 K (unless stated otherwise) on either a Bruker Avance III 600 MHz or a Bruker Avance NEO 800 MHz spectrometer, both equipped with TCI cryoprobes, using TopSpin 4.0.8 for data acquisition (Bruker, Billerica, MA). Unlabeled synthetic peptides P1-5, P2-6, P3-7, P5-9 were characterized by two-dimensional homonuclear (TOCSY and NOESY) and heteronuclear (^1H-^13C HSQC) experiments. The TOCSY and NOESY mixing times were set to 70 and 200 ms, respectively. Water suppression was achieved by excitation sculpting[59] using a 2 ms long Squa100.1000 selective pulse. For peptide backbone resonance assignment, using uniformly ^15N,^13C labeled peptides, the following series of 3D triple resonance BEST-TROSY[60] experiments were acquired with 25% non-uniform sampling (NUS): HNCO, HN(CA)CO, HN(CO)CA, HNCA, and HN(CO)CACB. For some peptides, we resolved assignment ambiguities by also acquiring a 3D (H)N(CA)NH spectrum. Furthermore, 2D ^13C-detected CACO and CON experiments[61] were measured. […]

In the case of “KKPGASLAALQALQALQAAQAAKKY [(P3-7)2, Gln-based single α-helix scaffold peptide]”, the Oligomeric state [1] is reported as “monomeric”, the “Θ222 nm/Θ208 nm” value [2] is reported as under 1 and the “Residue-specific helical propensity (pHel) over contiguous residues” value [3] is reported as over 0.9.
